Like-named read-outs stand apart in the source and are kept apart here. Values belong to the compound of their own block, whether it stands above or below them.
Columns and labels:
[1] = test system: Human promyelocytic leukemia HL-60 cells; assay: Cell differentiation of HL-60 cells, nitroblue tetrazolium (NBT) reduction; assay type: cell-based; conditions: for NBT (+) %: HL-60; for EC50: Homo sapiens
Protocol: Human promyelocytic leukemia HL-60 cells were cultured in RPMI-1640 medium supplemented by 10% heat-inactivated calf serum and 100 U/ml of penicillin plus 100 μg/ml of streptomycin. The flasks containing cells and medium were incubated in an incubator with 5% CO2 at 37° C. Log phase cells were seeded into the medium at a concentration of 1.2×10^5to 1.4×10^5 cells per ml and cultured in flasks containing 5 ml of medium. Each group consisted of three flasks. Different concentrations of coumarin-retinoids were added. At intervals following the addition of coumarin-retinoids to the cultures, a small portion of cells was removed and live cells were counted under a light microscope using a dye-exclusionmethod with trypan blue. Cell differentiation was judged in terms of morphology and nitroblue tetrazolium (NBT) reduction.
For a determination of NBT reducing activity, a portion of the coumarin-retinoid-treated cells was removed at intervals following treatment and centrifuged. After centrifugation, 0.5 ml of 0.1% NBT (containing 100 ng TPA) was added to each tube. The contents of the test tubes were then incubated for 1 hour at 37° C. Cell smears were prepared from the cell sediment and stained using the Wright-Giemsa technique. For each smear prepared, 200 cells were isolated for examination under a light microscope with an oil immersion lens. Cells stained with blue-black granules were considered NBT-positive cells. The 50% differentiation or effective concentration (ED50 or EC50) is shown in terms of molar (M) concentration of the […] tested.
(§1) The protocols of Examples 14 and 21 were used, for the NBT and MTT assays, respectively.

HL-60 cells = assay: MTT assay in HL-60 cells; assay type: cell-based, human; conditions: for inhibition at 10 µM: 10^-5 M; for inhibition at 10 µM / inhibition at 1 µM / inhibition at 0.1 µM / inhibition at 0.01 µM: HL-60; for inhibition at 1 µM: 10^-6 M; for inhibition at 0.1 µM: 10^-7 M; for inhibition at 0.01 µM: 10^-8 M
Protocol: Human cancer cell lines (KB, A2780, MCF-7, HL-60, A549) were used. For a monolayer culture, 0.5 ml of trypsin solution ([…]) was added to the flasks for digestion. Microtiter plates (96 well) were used for the cell culture and 200 μl of cell suspension (1200 tumor cells) were placed in each well and incubated at 37° C. for 24 hours. Following the addition of the test compound, the control and treated flasks were placed in a CO2 incubator for 5 day culture. For the MTT assay, 200 μl of MTT solution (5 mg in 10 ml of phosphate buffer) plus the medium were added and incubated for another 4 hours. Following incubation, the supernatant was discarded and 200 μl of DMSO was added to each well. With a mild agitation the OD values were determined by the MR 700 Elisa at 570 nm (reference wavelength was 450 nm). The ED50 of the compound and tumor cell survival rate [formula] as percent inhibition were calculated.
as §1

[2] = test system: bone abnormalities in mouse fetus; assay: Bone abnormalities in mouse fetus (anti-teratogenicity); assay type: in vivo
Protocol: Female mice were examined by vaginal smear the morning after being caged with male mice, and if sperm or a vaginal plug was discovered, then the mice were determined to be pregnant. The retinoids were administered at the dosage indicated starting on the seventh day of pregnancy and continued once a day for the next ten days. On the 20th day after the female mice were determined to be pregnant, they were sacrificed by cervical dislocation. Both sides of the uterus were checked and the number of living embryos, dead embryos, and absorbed embryos were counted. The living embryos were further examined for bone abnormalities.
After the embryos became transparent, they were dissected and their skeletons were checked by observation under a microscope.

[3] = NBT reduction, 50% differentiation, HL-60 (Table 2), read-out: EC50
[4] = Homo sapiens, 120 h, MTT, HL-60 (Table 12), read-out: ED50 (the source's name)
[5] = Homo sapiens, 120 h, HL-60 (Table 15), read-out: MTT ED50
[6] = HL-60 (Table 15), read-out: NBT ED50

EC50 [1, 3]: 2000 nM
SMILES: CC(=O)c1cc2c(C)cc(OC(=O)/C=C(C)/C=C/C=C(C)/C=C/C3=C(C)CCCC3(C)C)cc2oc1=O [Compound I-2]
NBT (+) % ([1]; 10^-5 M): 38%

EC50 [1, 3]: 800 nM
SMILES: CC(=O)c1cc2ccc(OC(=O)/C=C(C)/C=C/C=C(C)/C=C/C3=C(C)CCCC3(C)C)c(C)c2oc1=O [Compound I-3]

EC50 [1, 3]: 70 nM
SMILES: CC(=O)c1cc2c(C(=O)O)cc(OC(=O)/C=C(C)/C=C/C=C(C)/C=C/C3=C(C)CCCC3(C)C)cc2oc1=O [Compound I-4, 3-acetyl-5-carboxy-7-retinoyloxy coumarin]

EC50 [1, 3]: 750 nM
SMILES: CC(=O)c1cc2c(COC(=O)/C=C(C)/C=C/C=C(C)/C=C/C3=C(C)CCCC3(C)C)cc(OC(=O)/C=C(C)/C=C/C=C(C)/C=C/C3=C(C)CCCC3(C)C)cc2oc1=O [Compound I-7]

IC50 (HL-60 cells; [4]): 100 nM | EC50 [1, 3]: 59 nM
SMILES: CC(=O)c1cc2c(OC(=O)/C=C(C)/C=C/C=C(C)/C=C/C3=C(C)CCCC3(C)C)c(C(=O)O)ccc2oc1=O [Compound I-8]
inhibition at 10 µM (HL-60 cells; Homo sapiens, MTT): 63.9 ± 2.9% | inhibition at 1 µM (HL-60 cells; Homo sapiens, MTT): 54 ± 1.9% | inhibition at 0.1 µM (HL-60 cells; Homo sapiens, MTT): 50.5 ± 0.9% | inhibition at 0.01 µM (HL-60 cells; Homo sapiens, MTT): 29.7 ± 1.4%

SMILES: CC(=O)c1cc2ccc(OC(=O)/C=C(C)/C=C/C=C(C)/C=C/C3=C(C)CCCC3(C)C)c(OC(=O)/C=C(C)/C=C/C=C(C)/C=C/C3=C(C)CCCC3(C)C)c2oc1=O [Compound I-9]
IC50 (HL-60 cells; [4]): 950 nM | inhibition at 10 µM (HL-60 cells; Homo sapiens, MTT): 61.5 ± 1.9% | inhibition at 1 µM (HL-60 cells; Homo sapiens, MTT): 50.6 ± 0.5% | inhibition at 0.1 µM (HL-60 cells; Homo sapiens, MTT): 48.8 ± 0.5% | inhibition at 0.01 µM (HL-60 cells; Homo sapiens, MTT): 28 ± 5.2% | Delayed Calcification, Occipital delay/fetus ([2]; 20 mg/kg): 0/75 | Delayed Calcification, Sternum delay/fetus ([2]; 20 mg/kg): 0/75 | Delayed Calcification, Occipital delay/fetus ([2]; 40 mg/kg): 3/77 | Delayed Calcification, Sternum delay/fetus ([2]; 40 mg/kg): 2/77 | EC50 [1, 3]: 65 nM

EC50 [1, 3]: 3000 nM
SMILES: CCOC(=O)c1cc(OC(=O)/C=C(C)/C=C/C=C(C)/C=C/C2=C(C)CCCC2(C)C)cc2oc(=O)c(C(C)=O)cc12 [Compound I-11, 3-acetyl-5-ethoxycarbyl-7-retinoyloxy-coumarin]

EC50 [1, 3]: 10 nM
SMILES: CCCCCCCCCCCCOC(=O)c1cc(OC(=O)/C=C(C)/C=C/C=C(C)/C=C/C2=C(C)CCCC2(C)C)c(OC(=O)/C=C(C)/C=C/C=C(C)/C=C/C2=C(C)CCCC2(C)C)c2oc(=O)c(C(=O)OCC)cc12 [Compound I-12]

IC50 (HL-60 cells; [4]): > 10000 nM
SMILES: CCc1cc2cc(C(C)=O)c(=O)oc2cc1OC(=O)/C=C(C)/C=C/C=C(C)/C=C/C1=C(C)CCCC1(C)C [Compound I-13]
inhibition at 10 µM (HL-60 cells; Homo sapiens, MTT): 5.5 ± 3.9% | inhibition at 1 µM (HL-60 cells; Homo sapiens, MTT): 4.3 ± 6.1% | inhibition at 0.1 µM (HL-60 cells; Homo sapiens, MTT): 3.5 ± 3.9%

IC50 (HL-60 cells; [4]): 9000 nM
SMILES: CCCCCCc1cc2cc(C(C)=O)c(=O)oc2c(C)c1OC(=O)/C=C(C)/C=C/C=C(C)/C=C/C1=C(C)CCCC1(C)C [Compound I-14]
inhibition at 10 µM (HL-60 cells; Homo sapiens, MTT): 52.6 ± 1.3% | inhibition at 1 µM (HL-60 cells; Homo sapiens, MTT): 30 ± 1.4% | inhibition at 0.1 µM (HL-60 cells; Homo sapiens, MTT): 10.4 ± 2.4%

IC50 (HL-60 cells; [4]): 900 nM | EC50 [1, 3]: 260 nM
SMILES: CCOC(=O)c1cc2ccc(OC(=O)/C=C(C)/C=C/C=C(C)/C=C/C3=C(C)CCCC3(C)C)c(C)c2oc1=O [Compound I-15]
inhibition at 10 µM (HL-60 cells; Homo sapiens, MTT): 54.5 ± 2.8% | inhibition at 1 µM (HL-60 cells; Homo sapiens, MTT): 48.8 ± 1.3% | inhibition at 0.1 µM (HL-60 cells; Homo sapiens, MTT): 34.6% | inhibition at 0.01 µM (HL-60 cells; Homo sapiens, MTT): 16.2 ± 2.4%

EC50 [1, 3]: 1000 nM
SMILES: CCOC(=O)c1cc2ccc(OC(=O)/C=C(C)/C=C/C=C(C)/C=C/C3=C(C)CCCC3(C)C)cc2oc1=O [Compound I-17]

EC50 [1, 3]: 10000 nM
SMILES: CCOC(=O)c1cc2cc(Cl)c(OC(=O)/C=C(C)/C=C/C=C(C)/C=C/C3=C(C)CCCC3(C)C)cc2oc1=O [Compound I-18]

EC50 [1, 3]: 9000 nM
SMILES: CCOC(=O)c1cc2c(C(=O)O)cc(OC(=O)/C=C(C)/C=C/C=C(C)/C=C/C3=C(C)CCCC3(C)C)cc2oc1=O [Compound I-19]
NBT (+) % ([1]; 10^-4 M): 84% | NBT (+) % ([1]; 10^-5 M): 5% | NBT (+) % ([1]; 10^-7 M): 92%

IC50 (HL-60 cells; [4]): 1000 nM | EC50 [1, 3]: 250 nM
SMILES: CCOC(=O)c1cc2c(OC(=O)/C=C(C)/C=C/C=C(C)/C=C/C3=C(C)CCCC3(C)C)cc(OC(=O)/C=C(C)/C=C/C=C(C)/C=C/C3=C(C)CCCC3(C)C)cc2oc1=O [Compound I-21]
inhibition at 10 µM (HL-60 cells; Homo sapiens, MTT): 61.2 ± 2.4% | inhibition at 1 µM (HL-60 cells; Homo sapiens, MTT): 49.9 ± 2.5% | inhibition at 0.1 µM (HL-60 cells; Homo sapiens, MTT): 32.5 ± 1.1% | inhibition at 0.01 µM (HL-60 cells; Homo sapiens, MTT): 21.8 ± 3.1%

IC50 (HL-60 cells; [4]): 900 nM | EC50 [1, 3]: 80 nM
SMILES: CC1=C(/C=C/C(C)=C/C=C/C(C)=C/C(=O)Oc2cc(C(=O)O)c3cc(C(N)=O)c(=O)oc3c2)C(C)(C)CCC1 [Compound I-26]
inhibition at 10 µM (HL-60 cells; Homo sapiens, MTT): 68.7 ± 0.2% | inhibition at 1 µM (HL-60 cells; Homo sapiens, MTT): 52.6 ± 0.5% | inhibition at 0.1 µM (HL-60 cells; Homo sapiens, MTT): 43.8 ± 1.3% | inhibition at 0.01 µM (HL-60 cells; Homo sapiens, MTT): 9.4 ± 3.7%

EC50 [1, 3]: 550 nM
SMILES: CC1=C(/C=C/C(C)=C/C=C/C(C)=C/C(=O)Oc2cc3oc(=O)c(C(N)=O)cc3cc2Cl)C(C)(C)CCC1 [Compound I-27]

IC50 (HL-60 cells; [5]): > 10000 nM
SMILES: CC1=C(/C=C/C(C)=C/C=C/C(C)=C/C(=O)Oc2cc(=O)oc3ccc(C(C)(C)C)cc23)C(C)(C)CCC1 [Compound I-28, 4-retinoyloxy-6-t-butyl-coumarin]

IC50 (HL-60 cells; [5]): 1900 nM | EC50 [1, 6]: > 10000 nM
SMILES: CC1=C(/C=C/C(C)=C/C=C/C(C)=C/C(=O)Oc2cc(=O)oc3c(C)cccc23)C(C)(C)CCC1 [Compound I-29]

IC50 (HL-60 cells; [5]): > 10000 nM
SMILES: CC1=C(/C=C/C(C)=C/C=C/C(C)=C/C(=O)Oc2ccc3c(C)cc(=O)oc3c2C)C(C)(C)CCC1 [Compound I-30]

IC50 (HL-60 cells; [5]): > 10000 nM
SMILES: CCc1cc2c(C)cc(=O)oc2cc1OC(=O)/C=C(C)/C=C/C=C(C)/C=C/C1=C(C)CCCC1(C)C [Compound I-31, 4-methyl-6-ethyl-7-retinoyloxy-coumarin]

IC50 (HL-60 cells; HL-60 (Table 15), 7200 min, read-out: MTT ED50): 11000 nM
SMILES: CC1=C(/C=C/C(C)=C/C=C/C(C)=C/C(=O)Oc2ccc3c(C)cc(=O)oc3c2)C(C)(C)CCC1 [Compound I-32, 4-methyl-7-retinoyloxy-coumarin]

IC50 (HL-60 cells; [5]): 3200 nM | EC50 [1, 6]: > 10000 nM
SMILES: CC1=C(/C=C/C(C)=C/C=C/C(C)=C/C(=O)Oc2cc(OC(=O)/C=C(C)/C=C/C=C(C)/C=C/C3=C(C)CCCC3(C)C)c3c(C)cc(=O)oc3c2)C(C)(C)CCC1 [Compound I-33, 4-methyl-5,7-diretinoyloxy-coumarin]

IC50 (HL-60 cells; [5]): > 10000 nM
SMILES: CCCCCCc1cc2c(C)cc(=O)oc2cc1OC(=O)/C=C(C)/C=C/C=C(C)/C=C/C1=C(C)CCCC1(C)C [Compound I-34, 4-methyl-6-hexyl-7-retinoyloxy-coumar in]

IC50 (HL-60 cells; [5]): 2600 nM | EC50 [1, 6]: 6700 nM
SMILES: CC1=C(/C=C/C(C)=C/C=C/C(C)=C/C(=O)Oc2cc(=O)oc3ccc(C)cc23)C(C)(C)CCC1 [Compound I-35, 4-retinoyloxy-6-methyl-coumarin]

IC50 (HL-60 cells; [5]): 3200 nM | EC50 [1, 6]: > 10000 nM
SMILES: CC1=C(/C=C/C(C)=C/C=C/C(C)=C/C(=O)Oc2ccc3c(C)cc(=O)oc3c2OC(=O)/C=C(C)/C=C/C=C(C)/C=C/C2=C(C)CCCC2(C)C)C(C)(C)CCC1 [Compound I-36, 4-methyl-7,8-diretinoyloxy-coumarin]

Reference: patent US5716982A, “Retinoids and methods of use of same” (priority 1995, dated 1998)
